Structures are written as SMILES.

Data set [1] in a line: Thermogravimetric analysis (TGA) of freeze-dried surface-modified particles. It counts as physicochemical. The conditions noted are these: for Decomposition Temp.: TGA in helium, surfactant on NIR-sensitive nanoparticles; for Ave. Absorbed (amount of ligand adsorbed): TGA of freeze-dried particles. The method, then: Thermogravimetric analysis (TGA) was conducted in helium using a Perkin-Elmer series 7 Thermal Analysis system at a ramp rate of 4° C./min from 30° C. to 900° C.

How the values of data set [2] were obtained: Anti-cancer drugs and other biomolecules can be loaded onto the NIR-sensitive nanoparticles by coating the particles with surfactants. […] The insolubility of MUA in water necessitated the chemisorption of MUA in absolute ethanol. NIR-sensitive nanoparticles (colloids) were separated from the aqueous reaction mixture by centrifugation, and dispersed in 100 mM MUA in absolute ethanol. The nanoparticles (colloids) were dispersed in these surfactant solutions for 3 days, an estimated time for chemisorption to reach equilibrium.

On to `O=C(O)CCCCCCCCCCS` [MUA, mercaptoundecanoic acid], for which, in data set [1], the “Decomposition Temp.” value was around 200 °C and the “Ave. Absorbed (amount of ligand adsorbed)” value was 0.10 ± 0.03 nmol/mg. Also, the solubility in water entry in data set [2] is recorded as “insolubility”.
As to `O=C(O)CS` [MAA, mercaptoacetic acid], in data set [1], the “Decomposition Temp.” value was around 150 °C and the “Ave. Absorbed (amount of ligand adsorbed)” value worked out at 0.14 ± 0.01 nmol/mg.
